We go through three molecules from patent US9889181B2, “Bacteriophage lysin and antibiotic combinations against gram positive bacteria” (priority 2012, dated 2018).

≈ marks a conversion by molar mass, not a printed value. Read-outs that look alike come from different tables or passages of the source.

For assay [1], the system named is 20 different MSSA and 42 MRSA strains. The assay is described as follows: Time-kill assay, single agents at 1×MIC. It counts as cell-based, Staphylococcus aureus. The following applies: 1×MIC; for comparative kill: up to 6 hours. As to the method: In order to more fully evaluate PlySs2's applicability to clinical Staphylococcal infections, time kill studies were undertaken against numerous Staphylococcus aureus strains, including methicillin resistant and methicillin sensitive strains. Time kill assays were performed according to CLSI methodology (CLSI document M07-A9 column 32 No. 2) on 42 methicillin resistant S. aureus (MRSA) strains and 20 methicillin sensitive S. aureus (MSSA) strains. Cultures of each strain (5.5×10^5-1×10^6 starting inoculum) were treated with PlySs2 lysin and with antibiotics daptomycin, oxacillin or vancomycin for comparison for 6 hours with aeration. MRSA and MSSA strains were treated with PlySs2, daptomycin and vancomycin. MSSA strains were also treated with oxacillin. 1×MIC concentrations of the different antibiotics were utilized, based on published and established antibiotic MIC values. PlySs2 lysin treatment was at approximately 1×MIC as previously determined (see TABLE 2 above). Culture aliquots were removed hourly up to 6 hours (time points taken at 15 and 30 min, 1 hr, 2 hr, 3 hr, 4 hr, 5 hr, and 6 hr) and added to a PBS/charcoal solution (to inactivate each drug), which was then serially diluted and plated for bacterial viability. The resulting log CFU/mL was plotted for each culture. Growth controls were included for each strain and represent bacterial growth in the absence of any antibacterial agent. Exemplary log kill curves for selected MRSA strains are depicted in FIG. 1. Exemplary log kill curves for selected MSSA strains are depicted in FIG. 2.
Rapid-kill kinetics are desirable in the clinical setting to treat patients with fulminant bacterial infections.

The test system of assay [2] is MRSA strain MW2 and MSSA strain ATCC 29213. It counts as cell-based, Staphylococcus aureus.
Assay [3] concerns S. aureus cell envelope. The assay is described as follows: BODIPY-labeled antibiotic cell envelope binding time course. It counts as cell-based. From the text: As a complement to the synergy studies, daptomycin and vancomycin cell envelope-binding was examined using BODIPY-fluorescein-labeled antibiotics in the presence and absence of sub-MIC levels of CF-301.
Assay [4] concerns MRSA S. aureus strains. Description: Dual agent MIC assay (PlySs2 and daptomycin). It counts as cell-based, Staphylococcus aureus.
The subject of assay [5] is MRSA strain 269 (MW2). Description: Combination MIC in 15% surfactant (Survanta). Type of assay: cell-based, Staphylococcus aureus.
The test system of assay [6] is MRSA Staphylococcus aureus strain (MW2). Description: microbe, parasite or virus in culture. It counts as cell-based.
Assay [7] relates to MRSA strain MW2 (also strains 738, 832). It counts as in vivo, BALB/c mice. The following applies: FIG. 27E; 10^9 CFU, dosing at 2 hours; vancomycin 110 mg/kg twice daily, PlySs2 5.25 mg/kg.
The subject of assay [8] is MRSA strains. Description: Time kill assay, PlySs2 and antibiotic alone or in combination. Type of assay: cell-based, Staphylococcus aureus. The following applies: ½ MIC of PlySs2 or ¼ MIC of vancomycin alone.

For `CCCCCCCCCC(=O)N[C@@H](Cc1c[nH]c2ccccc12)C(=O)N[C@H](CC(N)=O)C(=O)N[C@@H](CC(=O)O)C(=O)N[C@@H]1C(=O)NCC(=O)N[C@@H](CCCN)C(=O)N[C@@H](CC(=O)O)C(=O)N[C@H](C)C(=O)N[C@@H](CC(=O)O)C(=O)NCC(=O)N[C@H](CO)C(=O)N[C@@H]([C@H](C)CC(=O)O)C(=O)N[C@@H](CC(=O)c2ccccc2N)C(=O)O[C@@H]1C` [Daptomycin, reference compound], in assay [1], the “time to reach bactericidal levels (≧3-log10 reduction in CFUs)” value is listed as 6 hours. Also, in assay [1], the “comparative kill” value was “most effective against most strains”. In addition, the “fold inhibition of MIC in the presence of Survanta” value in assay [2] (surfactant concentration of 1.25%) is “more than 20 fold”; in assay [2] (surfactant up to 15%, vs MIC without surfactant), “up to 256 fold”. Further, the “time to antibiotic penetration (BODIPY-labeled daptomycin binding)” value was 15 min in assay [3] (in the presence of CF-301 at 1/32nd MIC) and 180 min in assay [3] (without CF-301). Also, in assay [4] (MRSA strain 269 (MW2), single-agent), the MIC alone amounted to 1 µg/mL (≈ 0.617 µM). The “daptomycin MIC with 0.25×MIC PlySs2” value in assay [4] (dual agent MIC assay, strain not named) is 0.0075 µg/mL. Also, the “effective combination concentration as fraction of the MIC” value in assay [5] is given as 1/1024. Besides, in assay [5] (24 hours), the “effective concentration in PlySs2 plus daptomycin combination MIC” value is 0.25 µg/mL.
`Cc1onc(-c2ccccc2)c1C(=O)N[C@@H]1C(=O)N2[C@@H]1SC(C)(C)[C@@H]2C(=O)O` [Oxacillin, oxacillin, reference compound]: the “comparative kill” value in assay [1] is listed as “least effective”.
On to `CN[C@H](CC(C)C)C(=O)N[C@H]1C(=O)N[C@@H](CC(N)=O)C(=O)N[C@H]2C(=O)N[C@H]3C(=O)N[C@H](C(=O)N[C@H](C(=O)O)c4cc(O)cc(O)c4-c4cc3ccc4O)[C@H](O)c3ccc(c(Cl)c3)Oc3cc2cc(c3O[C@@H]2O[C@H](CO)[C@@H](O)[C@H](O)[C@H]2O[C@H]2C[C@](C)(N)[C@H](O)[C@H](C)O2)Oc2ccc(cc2Cl)[C@H]1O` [Vancomycin, vancomycin], for which the “fold increase in vancomycin MIC” value in assay [6] (25-day, vancomycin-only) is listed as 16 fold. The “vancomycin MIC, ending values” in assay [6] (25 day serial passage, PlySs2 (8 ug/ml) plus vancomycin (three cultures)) is 2 µg/mL. In addition, the MIC in assay [6] (Staphylococcus aureus, MRSA, read-out: vancomycin MIC, starting value, MW2) was 1 µg/mL (≈ 0.69 µM). In assay [7], the “24 hour survival rate” value is 20% and the “72 hour survival rate” value is reported as 3%. Also, in assay [8], the “effect alone at sub-MIC doses up to 6 hours” value is reported as “ineffective or poorly effective”. In addition, in assay [3] (in the presence of CF-301 (⅛^th MIC)), the “time to cell wall-labeling with BODIPY-labeled vancomycin” value was no more than 5 min. For the same molecule, the “time to cell wall-labeling with BODIPY-labeled vancomycin” value in assay [3] (without CF-301) is 30 min.
